We go through 35 compounds from patent publication US12371426B2, “Pyridazine derivatives as SMARCA2/4 degraders” (Aurigene Discovery Technologies Limited, priority 2018, dated 2025).

The structures appear in SMILES notation.

The assay deals with NCI-H929 cells. Put plainly: Anti proliferative activity in NCI-H929 cell line by Cell Titer Glo assay. It counts as cell-based. To be noted: Homo sapiens, 72 h, 3 days compound incubation, CellTiter Glo, read-out: Anti-proliferative activity IC50 group (NCI-H929 cells). The procedure: Determination of Anti Proliferative Activity of Compounds in NCI-H929 and NCI-H838 Cell Lines by Cell Titer Glo® (promega) assay:
NCI-H929 (ATCC CRL-9068) or NCI-H838 (ATCC CRL-5844) cells were seeded in 96 well plate flat black clear bottom plates (Corning, Cat. No 3904) using complete RPMI-1640 media. Next day, compounds listed in the present invention were added to cells from 10 mM stocks made in DMSO (Sigma Cat no. D2650). Each concentration of compound was tested in triplicate with DMSO concentration at a final percentage not exceeding 0.3 in the cells. After the compound incubation (3 days for H929 and 8 days for H838) assay was terminated using 50 μl of CellTiter Glo® reagent (Promega, Cat. no G7572). CellTiter Glo® Luminescent reagent determines the number of viable cells based on quantitation of ATP present which is an indicator of cell number and metabolic activity. Luminescence readings were taken in Victor-3 instrument. Percent inhibition of proliferation was calculated using formula, % inhibition=100−(luminescence value of test/luminescence value of DMSO control)*100. DMSO control (0%)=Cells in complete media with DMSO; blank=Media alone containing DMSO. IC50 was calculated using graph pad prism software.
Herein group “A” refers to IC50 value lower than 1 μM, “B” refers to IC50 value between 1-10 μM (both inclusive) and “C” refers to IC50 value higher than 10 μM or less than 50% activity at 10 μM.
As to `Cc1ncsc1-c1ccc(CNC(=O)[C@H]2C[C@H](O)CN2C(=O)[C@H](NC(=O)CCCCCCCCCC(=O)NC2CCN(c3cc(-c4ccccc4O)nnc3N)CC2)C(C)(C)C)cc1` [Compound 22], the IC50 was over 10 µM.
As for `Nc1nnc(-c2ccccc2O)cc1N1CCC(NC(=O)CCCCCCCCCC(=O)Nc2cccc3c2CN(C2CCC(=O)NC2=O)C3=O)CC1` (centres unmarked) [Compound 18], the figure is over 10 µM; as for `Cc1ncsc1-c1ccc(CNC(=O)[C@@H]2C[C@@H](O)CN2C(=O)[C@@H](NC(=O)CCCC(=O)N2CCN(c3cc(-c4ccccc4O)nnc3N)CC2)C(C)(C)C)cc1` [Compound 33], over 10 µM.
In the case of `Nc1nnc(-c2ccccc2O)cc1N1CCN(C(=O)COCC(=O)Nc2cccc3c2C(=O)N(C2CCC(=O)NC2=O)C3=O)CC1` (centres unmarked) [Compound 29], the IC50 was over 10 µM.
With `Nc1nnc(-c2ccccc2O)cc1N1CCC(C(=O)NCCOCCOCCOCC(=O)Nc2cccc3c2CN(C2CCC(=O)NC2=O)C3=O)CC1` (centres unmarked) [Compound 12], the IC50 was over 10 µM.
As for `Nc1nnc(-c2ccccc2O)cc1N1CCN(C(=O)COCC(=O)Nc2cccc3c2CN(C2CCC(=O)NC2=O)C3=O)CC1` (centres unmarked) [Compound 28], the figure is over 10 µM; as for `Cc1ncsc1-c1ccc(CNC(=O)[C@@H]2C[C@@H](O)CN2C(=O)[C@@H](NC(=O)COCC(=O)N2CCN(c3cc(-c4ccccc4O)nnc3N)CC2)C(C)(C)C)cc1` [Compound 31], over 10 µM; as for `COC(=O)c1cc(N2CCN(CC(=O)N[C@H](C(=O)N3C[C@H](O)C[C@H]3C(=O)N[C@@H](C)c3ccc(-c4scnc4C)cc3)C(C)(C)C)CC2)c(N)nn1` [Compound 72, methyl 6-amino-5-(4-(2-(((S)-1-((2S,4R)-4-hydroxy-2-(((S)-1-(4-(4-methylthiazol-5-yl)phenyl)ethyl)carbamoyl)pyrrolidin-1-yl)-3,3-dimethyl-1-oxobutan-2-yl)amino)-2-oxoethyl)piperazin-1-yl)pyridazine-3-carboxylate], over 10 µM.
As for `COc1ccccc1-c1cc(N2CCN(CC(=O)N[C@H](C(=O)N3C[C@H](O)C[C@H]3C(=O)N[C@@H](C)c3ccc(-c4scnc4C)cc3)C(C)(C)C)CC2)c(N)nn1` [Compound 45], the figure is over 10 µM.
Take `Cc1ncsc1-c1ccc([C@H](C)NC(=O)[C@@H]2C[C@@H](F)CN2C(=O)[C@@H](NC(=O)CN2CCN(c3cc(-c4ccccc4O)nnc3N)CC2)C(C)(C)C)cc1` [Compound 107]: the IC50 lay in the range of 1 to 10 µM.
For the compound `Cc1ncsc1-c1ccc(CNC(=O)[C@@H]2C[C@@H](O)CN2C(=O)[C@@H](NC(=O)CCCCCCCCCC(=O)N2CCN(c3cc(-c4ccccc4O)nnc3N)CC2)C(C)(C)C)cc1` [Compound 35], the IC50 lay in the range of 1 to 10 µM.
As for `Nc1nnc(-c2ccccc2O)cc1N1CCN(CC(=O)Nc2cccc3c2CN(C2CCC(=O)NC2=O)C3=O)CC1` (centres unmarked) [Compound 42], the figure is over 10 µM; as for `Nc1nnc(-c2ccccc2O)cc1N1CCC(NC(=O)CCCCCCC(=O)Nc2cccc3c2CN(C2CCC(=O)NC2=O)C3=O)CC1` (centres unmarked) [Compound 17], over 10 µM.
Take `Cc1ncsc1-c1ccc(CNC(=O)[C@@H]2C[C@@H](O)CN2C(=O)[C@@H](NC(=O)CCCCCCC(=O)N2CCN(c3cc(-c4ccccc4O)nnc3N)CC2)C(C)(C)C)cc1` [Compound 34]: the IC50 was over 10 µM.
On to `Nc1nnc(-c2ccccc2O)cc1N1CCC(NC(=O)CCCCCCC(=O)Nc2cccc3c2C(=O)N(C2CCC(=O)NC2=O)C3=O)CC1` (centres unmarked) [Compound 19], for which the IC50 was over 10 µM.
As for `Cc1ncsc1-c1ccc(CNC(=O)[C@@H]2C[C@@H](O)CN2C(=O)[C@@H](NC(=O)COCCOCCOCCNC(=O)C2CCN(c3cc(-c4ccccc4O)nnc3N)CC2)C(C)(C)C)cc1` [Compound 4], the figure is over 10 µM; as for `Cc1ncsc1-c1ccc([C@H](C)NC(=O)[C@@H]2C[C@@H](O)CN2C(=O)[C@@H](NC(=O)CCCCCNC(=O)C2CCN(c3cc(-c4ccccc4O)nnc3N)CC2)C(C)(C)C)cc1` [Compound 113], 1 to 10 µM; as for `Nc1nnc(-c2ccccc2O)cc1N1CCC(C(=O)NCCOCCOCCOCCOCC(=O)Nc2cccc3c2C(=O)N(C2CCC(=O)NC2=O)C3=O)CC1` (centres unmarked) [Compound 8], over 10 µM.
In the case of `Cc1ncsc1-c1ccc(CNC(=O)[C@@H]2C[C@@H](O)CN2C(=O)[C@@H](NC(=O)COCC(=O)NC2CCN(c3cc(-c4ccccc4O)nnc3N)CC2)C(C)(C)C)cc1` [Compound 14], the IC50 was over 10 µM.
As for `Cc1ncsc1-c1ccc([C@H](C)NC(=O)[C@@H]2C[C@H](O)CN2C(=O)[C@@H](NC(=O)CCCCCCC(=O)N2CCN(c3cc(-c4ccccc4O)nnc3N)CC2)C(C)(C)C)cc1` [Compound 115], the figure is 1 to 10 µM; as for `Cc1ncsc1-c1ccc([C@H](C)NC(=O)[C@@H]2C[C@@H](O)CN2C(=O)[C@@H](NC(=O)CCCC(=O)N2CCN(c3cc(-c4ccccc4O)nnc3N)CC2)C(C)(C)C)cc1` [Compound 114], over 10 µM.
Take `Nc1nnc(-c2ccccc2O)cc1N1CCC(NC(=O)COCC(=O)Nc2cccc3c2CN(C2CCC(=O)NC2=O)C3=O)CC1` (centres unmarked) [Compound 15]: the IC50 is over 10 µM.
Turning to `Cc1ncsc1-c1ccc(CNC(=O)[C@@H]2C[C@@H](O)CN2C(=O)[C@@H](NC(=O)COCCNC(=O)C2CCN(c3cc(-c4ccccc4O)nnc3N)CC2)C(C)(C)C)cc1` [Compound 1, 1-(3-amino-6-(2-hydroxyphenyl)pyridazin-4-yl)-N-(2-(2-(((S)-1-((2S,4R)-4-hydroxy-2-((4-(4-methylthiazol-5-yl)benzyl)carbamoyl)pyrrolidin-1-yl)-3,3-dimethyl-1-oxobutan-2-yl)amino)-2-oxoethoxy)ethyl)piperidine-4-carboxamide], the IC50 was over 10 µM.
As for `Cc1ncsc1-c1ccc([C@H](C)NC(=O)[C@@H]2C[C@@H](O)CN2C(=O)[C@@H](NC(=O)CCCCCCCC(=O)N2CCN(c3cc(-c4ccccc4O)nnc3N)CC2)C(C)(C)C)cc1` [Compound 111], the figure is under 1 µM; as for `Nc1nnc(-c2ccccc2O)cc1N1CCN(C(=O)CCCCCCC(=O)Nc2cccc3c2C(=O)N(C2CCC(=O)NC2=O)C3=O)CC1` (centres unmarked) [Compound 30], over 10 µM.
As for `Cc1ncsc1-c1ccc([C@H](C)NC(=O)[C@@H]2C[C@@H](O)CN2C(=O)[C@@H](NCC(=O)N2CCN(c3cc(-c4ccccc4O)nnc3N)CC2)C(C)(C)C)cc1` [Compound 49, (2S,4R)-1-((S)-2-((2-(4-(3-amino-6-(2-hydroxyphenyl)pyridazin-4-yl)piperazin-1-yl)-2-oxoethyl)amino)-3,3-dimethylbutanoyl)-4-hydroxy-N—((S)-1-(4-(4-methylthiazol-5-yl)phenyl)ethyl)pyrrolidine-2-carboxamide], the IC50 lay in the range of 1 to 10 µM.
The value for `Cc1ncsc1-c1ccc(CNC(=O)[C@@H]2C[C@@H](O)CN2C(=O)[C@@H](NC(=O)COCCOCCOCCOCCNC(=O)C2CCN(c3cc(-c4ccccc4O)nnc3N)CC2)C(C)(C)C)cc1` [Compound 3] was over 10 µM.
The value for `Cc1ncsc1-c1ccc(CNC(=O)[C@@H]2C[C@@H](O)CN2C(=O)[C@@H](NC(=O)COCCN2CCN(c3cc(-c4ccccc4O)nnc3N)CC2)C(C)(C)C)cc1` [Compound 53, (2S,4R)-1-((S)-2-(2-(2-(4-(3-amino-6-(2-hydroxyphenyl)pyridazin-4-yl)piperazin-1-yl)ethoxy)acetamido)-3,3-dimethylbutanoyl)-4-hydroxy-N-(4-(4-methylthiazol-5-yl)benzyl)pyrrolidine-2-carboxamide] was over 10 µM; that for `Cc1ncsc1-c1ccc([C@H](C)NC(=O)[C@@H]2C[C@@H](O)CN2C(=O)[C@@H](NC(=O)CC2CN(c3cc(-c4ccccc4O)nnc3N)C2)C(C)(C)C)cc1` [Compound 104] was 1 to 10 µM; that for `Cc1ncsc1-c1ccc(CNC(=O)[C@@H]2C[C@@H](O)CN2C(=O)[C@@H](NC(=O)C2CCN(c3cc(-c4ccccc4O)nnc3N)CC2)C(C)(C)C)cc1` [Compound 5] was over 10 µM.
As for `Cc1ncsc1-c1ccc([C@H](C)NC(=O)[C@@H]2C[C@@H](O)CN2C(=O)[C@@H](NC(=O)CN2CCN(c3cc(C(=O)O)nnc3N)CC2)C(C)(C)C)cc1` [Compound 73, 6-amino-5-(4-(2-(((S)-1-((2S,4R)-4-hydroxy-2-(((S)-1-(4-(4-methylthiazol-5-yl)phenyl)ethyl)carbamoyl)pyrrolidin-1-yl)-3,3-dimethyl-1-oxobutan-2-yl)amino)-2-oxoethyl)piperazin-1-yl)pyridazine-3-carboxylic acid], the IC50 is over 10 µM.
Consider `Cc1ncsc1-c1ccc(CNC(=O)[C@@H]2C[C@@H](O)CN2C(=O)[C@@H](NC(=O)CCCC(=O)NC2CCN(c3cc(-c4ccccc4O)nnc3N)CC2)C(C)(C)C)cc1` [Compound 20], for which the IC50 is over 10 µM.
For the compound `Cc1ncsc1-c1ccc([C@H](C)NC(=O)[C@@H]2C[C@@H](O)CN2C(=O)[C@@H](NC(=O)CCCCCC(=O)N2CCN(c3cc(-c4ccccc4O)nnc3N)CC2)C(C)(C)C)cc1` [Compound 112], the IC50 was under 1 µM.
Turning to `Nc1nnc(-c2ccccc2O)cc1N1CCN(C(=O)CCCC(=O)Nc2cccc3c2CN(C2CCC(=O)NC2=O)C3=O)CC1` (centres unmarked) [Compound 25], the IC50 was over 10 µM.
The value for `Nc1nnc(-c2ccccc2O)cc1N1CCC(NC(=O)COCC(=O)Nc2cccc3c2C(=O)N(C2CCC(=O)NC2=O)C3=O)CC1` (centres unmarked) [Compound 16] was over 10 µM.

The term IC50 denotes the concentration that inhibits the measured activity by half.
